Measurements from patent publication US7531482B2, “Thieno-pyrimidine compounds having fungicidal activity” (Dow AgroSciences LLC, priority 2005, dated 2009).
Read-outs that look alike come from different tables or passages of the source.

Columns and labels:
Format in all cases: in vivo
[1] = system: Puccinia recondita tritici; assay: Leaf Rust of Wheat (PUCCRT) whole-plant disease control test; settings: Puccinia recondita, foliar, read-out: PUCCRT disease control
[2] = system: Mycosphaerella graminicola=Septoria tritici; assay: Speckled Leaf Blotch of Wheat (SEPTTR) whole-plant disease control test; settings: Mycosphaerella, foliar, read-out: SEPTTR disease control
Phytophthora infestans = assay: whole plant or invertebrate; settings: Phytophthora infestans, in Solanum lycopersicum, foliar, read-out: PHYTIN disease control, 200 ppm applied to foliage of tomato; inoculated one day after treatment
Leptosphaeria nodorum = assay: Glume Blotch of Wheat (LEPTNO) whole-plant disease control test; settings: Parastagonospora nodorum, foliar; for pest or weed control at 200 ppm: read-out: LEPTNO disease control
[3] = system: Magnaporthe grisea=Pyricularia oryzae; assay: whole plant or invertebrate; settings: Pyricularia oryzae, foliar; for pest or weed control at 200 ppm: read-out: PYRIOR disease control, 200 ppm applied to foliage of rice, inoculated one day after treatment
Erysiphe cichoracaerum = assay: Cucumber Powdery Mildew (ERYSCI) whole-plant disease control test; settings: Erysiphe, foliar, read-out: ERYSCI disease control
Colletotricum lagenarium = assay: Cucumber Anthracnose (COLLLA) whole-plant disease control test; settings: Cucumis sativus, foliar, read-out: COLLLA disease control
[4] = 200 ppm applied to foliage of wheat, inoculated one day after treatment
[5] = 75 ppm applied to foliage of wheat
[6] = 200 ppm applied to foliage of cucumber, inoculated one day after treatment

Compound	pest or weed control at 200 ppm [1]	pest or weed control at 75 ppm [2]	pest or weed control at 200 ppm (Phytophthora infestans)	pest or weed control at 200 ppm (Leptosphaeria nodorum)	pest or weed control at 200 ppm [3]	pest or weed control at 200 ppm (Erysiphe cichoracaerum)	pest or weed control at 200 ppm (Colletotricum lagenarium)	pest or weed control at 200 ppm [1, 4]	pest or weed control at 75 ppm [2, 5]	pest or weed control at 200 ppm (Leptosphaeria nodorum; [4])	pest or weed control at 200 ppm (Erysiphe cichoracaerum; [6])	pest or weed control at 200 ppm (Colletotricum lagenarium; [6])	pest or weed control at 75 ppm (Leptosphaeria nodorum; 75 ppm (footnote b), wheat foliage)	pest or weed control at 8.3 ppm ([3]; read-out: PYRIOR disease control, 8.3 ppm (footnote c), rice foliage)
N#CCc1cccc(Oc2ccc(CCNc3ncnc4scc(Cl)c34)cc2)n1 [Compound 97]	80 to 100%	50 to 79%	80 to 100%	80 to 100%	80 to 100%	0 to 49%	50 to 79%	–	–	–	–	–	–	–
CCOC(=O)c1ccc(Oc2ccc(CCNc3ncnc4scc(Cl)c34)cc2)nc1 [Compound 23]	–	–	50 to 79%	–	50 to 79%	–	–	80 to 100%	0 to 49%	0 to 49%	0 to 49%	0 to 49%	–	–
O=C(Oc1ccc(CCNc2ncnc3scc(Cl)c23)cc1)c1ccccn1 [Compound 14]	–	–	0 to 49%	–	80 to 100%	–	–	80 to 100%	0 to 49%	50 to 79%	0 to 49%	0 to 49%	–	–
COc1cc(Oc2ccc(CCNc3ncnc4scc(Cl)c34)cc2)c(Br)cn1 [Compound 87]	–	–	50 to 79%	–	80 to 100%	–	–	80 to 100%	50 to 79%	50 to 79%	80 to 100%	0 to 49%	–	–
O=Cc1ccc(Oc2ccc(CCNc3ncnc4scc(Cl)c34)cc2)nc1 [Compound 24]	–	–	50 to 79%	–	80 to 100%	–	–	80 to 100%	50 to 79%	0 to 49%	0 to 49%	50 to 79%	–	–
FC(F)(F)c1cc(Oc2ccc(CCNc3ncnc4scc(Cl)c34)cc2)nc(C(F)(F)F)c1 [Compound 76]	–	–	0 to 49%	–	80 to 100%	–	–	80 to 100%	0 to 49%	50 to 79%	0 to 49%	50 to 79%	–	–
Clc1csc2ncnc(NCCc3ccc(Oc4ncccn4)cc3)c12 [Compound 17]	–	–	80 to 100%	–	80 to 100%	–	–	80 to 100%	50 to 79%	50 to 79%	50 to 79%	0 to 49%	–	–
Cc1nnsc1Oc1ccc(CCNc2ncnc3scc(Cl)c23)cc1 [Compound 114]	–	–	80 to 100%	–	80 to 100%	–	–	80 to 100%	50 to 79%	50 to 79%	80 to 100%	50 to 79%	–	–
FC(F)(F)c1cnc(Oc2ccc(CCNc3ncnc4scc(Cl)c34)cc2)c(Cl)c1 [Compound 64]	–	–	0 to 49%	–	80 to 100%	–	–	80 to 100%	80 to 100%	0 to 49%	80 to 100%	50 to 79%	–	–
CS(=O)(=O)c1cc(Oc2ccc(CCNc3ncnc4scc(Cl)c34)cc2)ccn1 [Compound 95]	–	–	80 to 100%	–	80 to 100%	–	–	80 to 100%	50 to 79%	80 to 100%	0 to 49%	50 to 79%	–	–
O=[N+]([O-])c1ccc(Oc2ccc(CCNc3ncnc4scc(Cl)c34)cc2)nc1 [Compound 3]	–	–	80 to 100%	–	80 to 100%	–	–	80 to 100%	50 to 79%	50 to 79%	50 to 79%	50 to 79%	–	–
CC(C)OC(=O)c1cnc(Oc2ccc(CCNc3ncnc4scc(Cl)c34)cc2)c(Cl)c1 [Compound 106]	–	–	0 to 49%	–	80 to 100%	–	–	80 to 100%	50 to 79%	0 to 49%	0 to 49%	0 to 49%	–	–
Clc1csc2ncnc(NCCc3ccc(Oc4ncc(Br)s4)cc3)c12 [Compound 16]	–	–	80 to 100%	–	80 to 100%	–	–	80 to 100%	80 to 100%	0 to 49%	50 to 79%	0 to 49%	–	–
N#Cc1ccnc(Oc2ccc(CCNc3ncnc4scc(F)c34)cc2)c1 [Compound 55]	–	–	50 to 79%	–	0 to 49%	–	–	80 to 100%	50 to 79%	0 to 49%	50 to 79%	80 to 100%	–	–
O=C(Oc1ccc(CCNc2ncnc3scc(Cl)c23)cc1)c1ccc(Cl)nc1 [Compound 15]	–	–	0 to 49%	–	80 to 100%	–	–	80 to 100%	0 to 49%	50 to 79%	0 to 49%	0 to 49%	–	–
N#Cc1c(Cl)cncc1Oc1ccc(CCNc2ncnc3scc(Cl)c23)cc1 [Compound 71]	–	–	0 to 49%	–	80 to 100%	–	–	80 to 100%	80 to 100%	80 to 100%	50 to 79%	80 to 100%	–	–
N#Cc1nc(F)c(F)c(Oc2ccc(CCNc3ncnc4scc(Cl)c34)cc2)c1F [Compound 103]	–	–	0 to 49%	–	50 to 79%	–	–	50 to 79%	0 to 49%	50 to 79%	0 to 49%	50 to 79%	–	–
N#Cc1nccnc1Oc1ccc(CCNc2ncnc3scc(Cl)c23)cc1 [Compound 125]	–	–	50 to 79%	–	–	–	–	80 to 100%	50 to 79%	–	50 to 79%	0 to 49%	0 to 49%	80 to 100%
CCc1ncnc(Oc2ccc(CCNc3ncnc4scc(Cl)c34)cc2)c1Cl [Compound 52]	–	–	0 to 49%	–	80 to 100%	–	–	80 to 100%	80 to 100%	50 to 79%	50 to 79%	50 to 79%	–	–
FC(F)(F)c1ccc(Oc2cccc(CCNc3ncnc4scc(Cl)c34)c2)nc1 [Compound 67, (5-Chlorothieno[2,3-d]pyrimidin-4-yl)-{2-[3-(5-trifluoromethylpyridin-2-yloxy)phenyl]ethyl}amine]	–	–	50 to 79%	–	80 to 100%	–	–	80 to 100%	80 to 100%	50 to 79%	50 to 79%	0 to 49%	–	–
N#Cc1nc(Cl)ccc1Oc1ccc(CCNc2ncnc3scc(Cl)c23)cc1 [Compound 58]	–	–	0 to 49%	–	80 to 100%	–	–	80 to 100%	50 to 79%	50 to 79%	0 to 49%	0 to 49%	–	–
